Laboratory results taken from patent US20240390308A1, “APPLICATION METHOD OF POTASSIUM ION CHANNEL BLOCKER IN PREPARATION OF DRUGS FOR TREATING LIVER FIBROSIS” (Affiliated Hospital of Zunyi Medical University, priority 2023, published 2024).

Key:
[1] = test system: CCl4-induced liver fibrosis in mice; experiment: CCl4-induced liver fibrosis in mice, HE staining and Sirius-red staining of liver tissue; format: in vivo
Procedure: Experimental materials include 60 healthy male C57 mice (20-25g/mouse), gavage needles, 1 milliliter (mL) syringes, CCl4 solution, olive oil and sotalol solution. Experimental method is as follows. The CCl4 solution is dissolved in the olive oil solution (CCl4: olive oil=1:[…]), prepared and used immediately, concentration is 0.1milliliters per 20 grams (0.1 mL/20 g), intragastrically administered twice a week for a total of 8 weeks to the mice. The sotalol solution is mixed with physiological saline, prepared and used immediately, concentration is 1 millimole per liter (mM), 0.2 mL/20 g, and intraperitoneally injected once a day for a total of 6-8 weeks to the mice. The mice are randomly divided into four groups: a. a normal control group; b. a model group, mice are intragastrically administered the CCl4 for 8 weeks; c. a CCl4 and sotalol group, mice are treated with the CCl4 alone for 2 weeks, followed by concurrent administration of the sotalol and CCl4 for 6 weeks; d. a sotalol group, mice are intraperitoneally injected the sotalol for 8 weeks. The mice are sacrificed in sequence at the 2nd, 4th, 6th, and 8th weeks of modeling, one for each group, liver samples of the mice are taken out and placed in a -80 Celsius degree (° C.) refrigerator for quick-frozen storage, and other livers are fixed in 4% paraformaldehyde for 24 hours and then embedded in paraffins. […] Then, all mice are sacrificed, and eyeball blood of mice is taken to measure liver function indexes (alanine transaminase abbreviated as ALT, aspartate transaminase abbreviated as AST). In addition, the liver tissue is fixed with formaldehyde and embedded in paraffins for later use.

[2] = test system: α-SMA; experiment: α-SMA expression in liver tissue detected by immunohistochemistry; format: in vivo; conditions: liver fibrosis mice induced by CCl4, treated with sotalol
Procedure: Experimental methods are as follows. The paraffin blocks prepared in the embodiment 1 are taken and performed immunohistochemistry according to the procedures after slicing into slices. The slices are soaked in 100%, 95%, 80%, and 75% ethanol for 5 minutes sequentially in that order, then rinsed them with the PBS solution, catalase is removed by using hydrogen peroxide, and antigens are repaired by sodium citrate repair solution. After cooling, the treated slices are rinsed with the PBS solution, sealed at room temperature for 30 minutes, then incubated overnight at 4° C. with primary antibodies, and incubated at room temperature with secondary antibodies for 1 hour on the next day. Then, the incubated slices are stained with diaminobenzidine (DAB), counterstained with hematoxylin, differentiated with hydrochloric acid alcohol, dehydrated, sealed, and finally observed and photographed under the microscope.

[3] = test system: α-SMA, LC3, p62, N-cadherin, vimentin, ZO-1 in liver tissue; experiment: Expression of α-SMA, autophagy-related index and EMT markers in liver tissue by Western-blot; format: in vivo, mice; conditions: liver tissue induced by CCl4, after treatment with sotalol
Excerpt: Experimental materials include mouse liver tissue, a tweezer, a scissor, 2 millimeters (mm) steel balls, a magnet, a cell lysis solution, a PBS solution, a bicinchoninic acid (BCA) protein quantitative kit, defatted milk powder, and primary antibodies and corresponding secondary antibodies related to α-SMA, autophagy and EMT. Experimental method are as follows. The liver tissue in the embodiment 1 is taken about the size of a grain of rice by using the tweezer and the scissor, added to labeled 1.5 mL Eppendorf (EP) tubes, two 2 mm steel balls and 200-250 microliter (μL) cell lysis solution are added into each of the EP tubes, after the parameters are set, and the EP tubes are placed in the grinder for full grinding. Then, the steel balls are sucked out by using the magnet, and after being applied to the ice for 30 minutes, the EP tubes are centrifuged at 12000 revolutions per minute (rpm) for 30 minutes at 4° C. A standard curve is made, 1 μL protein samples, 19 μL PBS solution and 200 μL (50:1) BCA working solution are added in each well of a 96-well plate, and two replicate wells are added per well. The 96-well plate is put in a 37°° C. drying oven for 30 minutes. The optical density (OD) value at 560 nanometers (nm) is measured by using an enzyme-linked immunosorbent assay (ELISA) on the machine to calculate the concentration of the protein. The protein is boiled in boiling water for 5 minutes before samples loading, and the samples are performed with gel electrophoresis, membrane transfer and blocking sequentially, then the treated samples are exposed after incubating with the primary antibodies and the secondary antibodies.

[4] = test system: HSC-T6 cells; experiment: Sotalol and TGF-β1 co-culture, proliferation of hepatic stellate cells detected by CCK-8; format: cell-based, rat; conditions: sotalol 200, 400, 800, 1000 μM added 3 hours before TGF-β1 10 ng/ml; 48 hours incubation
Procedure: Experimental materials include HSC-T6 cells (also referred to as immortalized hepatic rat stellate cell line), a Dulbecco's modified Eagle's medium (DMEM) complete medium, a 96-well plate, a counting chamber (also referred to as hemocytometer), CCK-8 working solution, and the like. Experimental method are as follows. The HSC-T6 cells are cultured in the DMEM culture medium containing 10% fetal bovine serum, 1% double antibodies (penicillin-streptomycin solution) and 1% nonessential amino acid (NEAA) at 37° C. and 5% CO2, and the cells are digested by using trypsin for passage cultivation after the cells are converged to 80% to 90%. Next, the cells are inoculated in the plate, specifically, a density of 7×10^6 cells per liter (cells/L) cell suspension is taken and added at 100 μL cell suspension per well to the 96-well culture plate, each group has 6 replicate wells. […] After incubation for 48 hours, 100 μL of “10% CCK-8 and 90% medium” mixed solution is added to each well and incubated for 1 hour to 4 hours at 37° C., the wavelength is set at 450 nm, and absorbance value is read and recorded at the corresponding wavelength by using a fully-automated enzyme labeling instrument. Effects of sotalol on cell proliferation are detected by CCK-8, and an optimal time of action and an optimal drug concentration are screened.

[5] = test system: α-SMA, LC3, p62, ZO-1, N-cadherin, vimentin in HSC-T6 cells; experiment: Expression of α-SMA, autophagy-related index and EMT markers in HSCs by Western-blot; format: cell-based, rat; conditions: sotalol 400 μM, TGF-β1 10 ng/mL, 48 hours
Procedure: Experimental materials include HSC-T6 cells, a DMEM complete medium, cell culture dishes, a cell lysis solution, a PBS solution, a BCA protein quantitative kit, defatted milk powder, primary antibodies and corresponding secondary antibodies related to α-SMA, autophagy and EMT. Experimental method are as follows. The experiment is grouped into a normal control group, a TGF-β 1 group, a sotalol +TGF-β1 group, and a sotalol group, where the stimulation concentration of the TGF-β1 is 10 ng/mL and concentration of the sotalol is 400 μM. The HSC-T6 cells are cultured by using cell culture dishes, incubated, dosed, and added with TGF-β1according to the conditions described in the embodiment 4. After 48 hours, the incubated cells are rinsed by the precooled PBS solution for 3-4 times, and residual PBS liquid is absorbed with a filter paper, 50 μL radioimmune precipitation assay (RIPA) and 0.5 μL (100:1) phenylmethanesulfonyl fluoride (PMSF) with […] concentration are added in a 50 mL culture flask and placed on ice for 30 minutes. Then, the protein is scraped by a cell scraper from the culture flask and suctioned out into the EP tubes, and centrifuged at 12000 rpm for 30 minutes at 4° C. A standard curve is made, 1 μL protein samples, 19 μL PBS solution and 200 μL (50:1) BCA working solution are added in each well of the 96-well plate, and two replicate wells are added per well. The 96-well plate is put in a 37° C. drying oven for 30 minutes. The OD value at 560 nm is measured by using an enzyme-linked immunosorbent assay on the machine to calculate the concentration of the protein. The protein is boiled in boiling water for 5 minutes before samples loading, and the samples are performed with gel electrophoresis, membrane transfer and blocking sequentially, then the treated samples are exposed after incubating with the primary antibodies and the secondary antibodies.

[6] = CCl4 and sotalol group: CCl4 alone 2 weeks, then sotalol (1 mM, 0.2 mL/20 g, i.p. once a day) plus CCl4 for 6 weeks, vs model group

collagen fibers (Sirius-red staining), induction of liver fibrosis by sotalol alone ([1]; sotalol group: sotalol 1 mM, 0.2 mL/20 g, i.p. once a day for 8 weeks, no CCl4): no obvious collagen fibers are observed
Structure (SMILES): CC(C)NCC(O)c1ccc(NS(C)(=O)=O)cc1 (centres unmarked) [sotalol]
degree of damage of the liver tissue (HE staining) [1, 6]: significantly reduced
degree of fibrous tissue proliferation (HE staining) [1, 6]: significantly reduced
expression of α-SMA in liver tissue (immunohistochemistry) [2]: down-regulate
accumulation of ZO-1 in liver tissue (Western-blot) [3]: promoted
accumulation of p62 in liver tissue (Western-blot) [3]: promoted
expression of LC3 in liver tissue (Western-blot) [3]: significantly reduced
expression of N-cadherin in liver tissue (Western-blot) [3]: inhibited
expression of vimentin in liver tissue (Western-blot) [3]: inhibited
expression of α-SMA in liver tissue (Western-blot) [3]: significantly reduced
TGF-β1-induced proliferation trend of HSC-T6 cells (CCK-8) [4]: inhibited
accumulation of P62 in HSCs (Western-blot) [5]: promoted
accumulation of ZO-1 in HSCs (Western-blot) [5]: promoted
expression of LC3 in HSCs (Western-blot) [5]: significantly inhibited
expression of N-cadherin in HSCs (Western-blot) [5]: inhibited
expression of vimentin in HSCs (Western-blot) [5]: inhibited
expression of α-SMA in HSCs (Western-blot) [5]: significantly reduced
